Assays:
[1] = target: T1, Estrogen receptor (Rattus norvegicus) (UniProt P06211+Q62986)
Description: Anti-uterotrophic effect in rats at 50 ug/animal/day in the presence of 0.5 ug estradiol benzoate

[2] = target: T1, Estrogen receptor (Rattus norvegicus); conditions: Uterus
Description: Uterotrophic effect in rats at 50 ug/animal/day hydroxytamoxifen

| Antiuterotropic effect [1] | Uterotropic effect [2] | SMILES |
| --- | --- | --- |
| 16.7 | 6.7 | CC/C(=C(/c1ccc(OCCN(C)C)cc1)c1cccc(O)c1)c1ccccc1 |
| 21.6 | 24 | C[C@]12CC[C@@H]3c4ccc(OC(=O)c5ccccc5)cc4CC[C@H]3[C@@H]1CC[C@@H]2O |
| 15.7 | 10.1 | CC/C(=C(\c1ccccc1)c1ccc(OCCN(C)C)cc1)c1cccc(O)c1 |

The next lines start with the molecule.

| SMILES | Antiuterotropic effect [1] | Uterotropic effect [2] |
| --- | --- | --- |
| CC/C(=C(/c1ccccc1)c1ccc(OCCN(C)C)cc1)c1ccc(O)cc1 | 15.7 | 11 |
| CC/C(=C(/c1ccccc1)c1ccc(OCCN(C)C)cc1)c1cccc(O)c1 | 19.7 | 5.7 |

— ChEMBL document CHEMBL1122129, “Estrogenic and antiestrogenic activity of monophenolic analogues of tamoxifen, (Z)-2-[p-(1,2-diphenyl-1-butenyl)phenoxy]-N, N-dimethylethylamine” (J Med Chem, 1982)
